Data as given in patent publication EP1616965A1, “Methods and assays for detecting guanylate cyclase activity” (AXXAM S.r.l., priority 2004, dated 2006).

Biological target: T1, soluble guanylate cyclase (sGC) (Rattus norvegicus, UniProt P19686+P20595, C541D/E473K/R592Q)
T1 construct: To reconstitute the full length mutated gene, these three discrete fragments were used as template in a final PCR reaction; expressed in transfected cells
T1 sequence (P19686 1-690 R592Q): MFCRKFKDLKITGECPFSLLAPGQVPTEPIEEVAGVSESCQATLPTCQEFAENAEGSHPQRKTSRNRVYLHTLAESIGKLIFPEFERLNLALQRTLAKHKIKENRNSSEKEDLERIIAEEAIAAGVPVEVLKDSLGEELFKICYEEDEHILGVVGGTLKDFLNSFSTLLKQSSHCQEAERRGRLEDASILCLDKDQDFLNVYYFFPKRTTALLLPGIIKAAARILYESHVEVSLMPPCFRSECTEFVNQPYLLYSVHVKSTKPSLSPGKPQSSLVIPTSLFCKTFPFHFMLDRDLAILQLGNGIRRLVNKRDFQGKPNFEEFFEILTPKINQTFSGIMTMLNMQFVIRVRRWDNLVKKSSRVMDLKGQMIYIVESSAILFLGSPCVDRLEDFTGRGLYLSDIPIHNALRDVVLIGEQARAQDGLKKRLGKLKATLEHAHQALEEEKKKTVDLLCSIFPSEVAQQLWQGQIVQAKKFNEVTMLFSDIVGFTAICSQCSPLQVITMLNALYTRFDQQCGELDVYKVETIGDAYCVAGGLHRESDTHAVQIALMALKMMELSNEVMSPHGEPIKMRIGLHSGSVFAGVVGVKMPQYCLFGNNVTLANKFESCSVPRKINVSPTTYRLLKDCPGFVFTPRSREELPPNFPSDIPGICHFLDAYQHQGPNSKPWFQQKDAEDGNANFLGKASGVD
T1 sequence (P20595 1-619 E473K/C541D): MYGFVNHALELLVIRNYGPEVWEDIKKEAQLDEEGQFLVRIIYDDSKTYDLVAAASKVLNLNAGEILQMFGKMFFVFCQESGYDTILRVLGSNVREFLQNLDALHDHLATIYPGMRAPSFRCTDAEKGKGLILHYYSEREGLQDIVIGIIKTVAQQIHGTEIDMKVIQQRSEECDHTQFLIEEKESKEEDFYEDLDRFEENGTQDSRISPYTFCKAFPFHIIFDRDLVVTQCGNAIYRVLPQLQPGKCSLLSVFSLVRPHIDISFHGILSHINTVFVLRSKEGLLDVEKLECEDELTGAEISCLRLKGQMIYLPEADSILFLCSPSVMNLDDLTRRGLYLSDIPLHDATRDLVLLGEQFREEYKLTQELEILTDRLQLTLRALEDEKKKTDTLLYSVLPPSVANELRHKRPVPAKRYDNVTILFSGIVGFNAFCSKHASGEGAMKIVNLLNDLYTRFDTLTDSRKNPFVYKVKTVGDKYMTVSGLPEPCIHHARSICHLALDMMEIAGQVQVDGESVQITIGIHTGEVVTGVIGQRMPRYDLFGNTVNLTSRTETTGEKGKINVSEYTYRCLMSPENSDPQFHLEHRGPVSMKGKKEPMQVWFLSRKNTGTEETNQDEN
Assay: MRE-CRE luciferase reporter assay in CHO cAMPL cells expressing mutated sGC (clone 7)
Format: cell-based
Conditions: dose response of BAY41-2272 in the absence or presence of ODQ (300 nM, 3 µM, 30 µM); 384 wp, Tyrode buffer
Procedure: According to the invention, the sGC enzymatic activity is determined by coupling a sGC enzyme with modified substrate specificity to a cAMP sensitive reporter construct in a suitable eukaryotic or prokaryotic cell, whereby the activity of the reporter gene is indicative of the sGC enzymatic activity. The sGC enzyme with modified substrate specificity is able to catalyze the conversion of ATP into cyclic AMP without affecting the allosteric regulation of the natural enzyme. The sGC substrate specificity can be modified by replacing the amino acid residues involved in nucleotide binding with the corresponding residues present in the active site of adenylate cyclase. For example, when rat sGC is used, the amino acids Arg592 of α subunit, Glu473 and Cys541 of β subunit are respectively changed into Gln, Lys and Asp, to confer ATP substrate-specificity. More details on the modification of sGC substrate specificity can be found in Sunahara et al. (1998), which is hereby incorporated by reference.
Rat wild type sGC […] and β1 subunits were amplified from brain cDNA by RT-PCR and used as templates for site directed mutagenesis. […]
1500 c/w were seeded in 384 wp. […] Luciferase activity was detected after injection of 25ul Bright-GloTM (Promega) at the CCD camera (60" measurement, high sensitivity). […]

O=c1onc2cnc3ccccc3n12 [ODQ]
Inhibition of BAY41-2272 activity by ODQ: BAY41-2272 stimulating effect on sGC is competed by ODQ
